How the values were obtained:
[1] = Antigenicity by sandwich-type capture ELISA after SCCNC treatment; assay type: binding
Description: Experiments were performed to encapsulate tetanus toxoid (TT) and diphtheria toxoid (DT) vaccine antigens in 50:50 PLGA polymer microspheres formed by SCCNC carbon dioxide and propane. In these tests, DT and TT were each separately treated with supercritical carbon dioxide with 10% (v/v) cosolvent ethanol, and near-critical propane in the presence of PLGA. The pressure and temperature were around 3,000 psig and 30-35° C. respectively. The protein and antigenicity activities were performed by micro BCA assay and a sandwich-type capture ELISA [Gupta, R. K., Siber, G. R., Alonso, M. J. and Langer, R., in Modern Approaches To New Vaccines Including Prevention of AIDS. Ed. by Ginsberg, H. S., Brown, F., Chanock, R. M. and Lerner, R. A. Cold Spring Harbor Laboratory, Press, 1993] assay.

[2] = aqueous protein; cited from earlier work
[3] = system: chronic diabetic BB/W or male rats; assay: In vivo release of insulin: glucose concentration in diabetic rats; conditions: for Effect on glucose levels (in words): bled 0.5 to 16 hrs after treatment
Description: A preliminary study with SCCNC polymer nanoencapsulated insulin was conducted in diabetic rats. Three groups of four chronic diabetic BB/W or male rats were used to evaluate efficacy on nanoencapsulated insulin (MS-29). One group [A] was given 2 ml of the test formulation (MS-29) using the standard gavage method. The second group [B] received oral non-encapsulated insulin, administered by gavage at the concentration based on the animals' day of diabetes onset. A third group [C] received injected insulin (PZI, Eli Lilly) therapy at the dose consistent with their day of onset of diabetes. The animals were bled prior to treatment and at 0.5, 1, 2, 4, 8, and 16 hrs after treatment.

[4] = treated with SCCNC carbon dioxide/ethanol mixtures

Substance	ELISA (Lf/mL), antigenicity ([1]; toxoid in PLGA microspheres formed by different SCCNC, around 3,000 psig, 30-35° C.) [Lf/mL]	Antigenicity after treatment (in words) [1, 4]	pH levels at which the toxoid will denature [2]	Percent Change in Glucose Concentration ([3]; 0.5 hr post-treatment)	Percent Change in Glucose Concentration ([3]; 1 hr post-treatment) [%]	Percent Change in Glucose Concentration ([3]; 2 hr post-treatment) [%]	Percent Change in Glucose Concentration ([3]; 4 hr post-treatment)	Percent Change in Glucose Concentration ([3]; 8 hr post-treatment)	Percent Change in Glucose Concentration ([3]; 16 hr post-treatment)	Effect on glucose levels (in words) [3]	Antigenicity after treatment (in words) ([1]; treated with near-critical propane)
4: Tetanus toxoid, Control [Sample 4]	9.0										
tetanus toxoid: tetanus toxoid (TT) vaccine antigen		lost most of their antigenicity	below 5.0								
Injected Insulin: injected insulin (PZI, Eli Lilly), positive control				−47.4%	−62.7	−71.8	−37.9%	−48.5%	−37.6%	statistical decrease in glucose levels at all times measured post treatment	
Oral Insulin: oral non-encapsulated insulin, administered by gavage				+2.9%	−4.6	−24.4	+2.8%	+7.5%	+47.3%	only showed a statistical decrease in the level of glucose at one time point, 2 hours	
diphtheria toxoid		lost most of their antigenicity	below 5.0								did little damage
